The subject of the data set is cutaneous melanogenesis. In words: double-blind study of melanostimulant effects by topical administration in humans. The class given is in vivo. The conditions noted are these: gel at 10 ppm, topical twice a day for 3 weeks, listed as peptide no. 1. The method, then:
2. A double-blind study of the melanostimulant effects by topical administration of peptide no. 1 in the table was carried out in humans.
A gel of peptide no. 1 at 10 ppm and its placebo were applied, twice a day for 3 weeks, to the inner face of the forearms of twelve normal volunteers who had given their informed consent. Since the arms were not exposed to the sun, they were given an exactly calibrated artificial solar exposure of 0.6 MED (minimum erythema dose) once a day from the 16th to 20th day.
24 h after the final treatment, a clinical evaluation of the treated regions was carried out blind, and the intensity of coloration was marked according to a five-level index scale. A biopsy sample was then taken in order to quantify the melanin produced and to evaluate the ultrastructural consequences of the treatment.
The quantification of the epidermal melanin was carried out on histological sections by image analysis after labeling with AgNO3. Only the active layers of the epidermis were analyzed (from the stratum germinativum to the stratum spinosum), using the Leica Quantimet after digitization (Sony CCD camera).
The ultrastructural analysis of the melanocytes and melanosomes was carried out by electron microscopy. A double-contrast technique was used on the thin sections, which were then observed at magnifications ranging up to ×12000 (Jeol 1200EX).

“Also recorded” adds a separate entry of the source. Where a SMILES comes first, the peptide text is derived from it. [ ]: non-standard residue; d: D form. Nle = CCCC[C@H](N)C(=O)O

`CCCC[C@H](NC(C)=O)C(=O)N[C@@H](C)C(=O)N[C@@H](Cc1c[nH]cn1)C(=O)N[C@H](Cc1ccccc1)C(=O)N[C@@H](CCCNC(=N)N)C(=O)N[C@@H](Cc1c[nH]c2ccccc12)C(N)=O` [Compound 1, Ac-Nle-Ala-His-DPhe-Arg-Trp-NH2] (Ac-[Nle]AH[dF]RW-NH2): the “local tolerance (clinical observation of the treated regions)” value is reported as “no sign of intolerance; also recorded: completely tolerated at the local level”.

The values above are taken from patent publication US7268108B2, “Alpha-melanocyte stimulating hormone derivatives and cosmetic application thereof” (Institut European de Biologie Cellulaire, priority 2002, dated 2007).
